Data from patent US20240277722A1, “CANCER THERAPY USING A COMBINATION OF CDK7 INHIBITOR WITH AN ANTI-CANCER AGENT” (Aurigene Oncology Limited, priority 2021, published 2024).
Several values for one entry are separate records, joined by “and”; a condition that tells them apart may be missing. Equal entries are not always repeated. Where two headings read alike, the source gives them in different places.

Legend:
MCF-7 cells = assay: MCF-7 cell proliferation, CTG reagent, 6-day treatment, single agents and combination (CompuSyn synergy analysis); type: cell-based
Protocol: The effect of 6-day compound treatment on cell proliferation was measured using CTG reagent.

Z-138 cells = assay: Z-138 cell proliferation, CTG reagent, 3-day treatment, single agents and combination (CompuSyn synergy analysis); type: cell-based
Protocol: Z-138 cells were treated with serial dilutions of Compound-44A (CDK7 inhibitor), serial dilutions of venetoclax individually and in combination for 3 days. The effect of 3-day compound treatment on cell proliferation was measured using CTG reagent. Percentage inhibition of cell proliferation in individual (Compound-44A, venetoclax) and combination treatments (Compound-44A+venetoclax) were analyzed using CompuSyn software to assess synergy.

CC(C)[C@H](C(=O)Nc1cc(C2CC2)[nH]n1)c1cccc(-c2ccc(NC(=O)/C=C/CN3CCOCC3)nc2)c1 (single isomer, unassigned) [Compound-44A]
% Inhibition of proliferation (MCF-7 cells; Compound-44A 0.006272 nM, Day-6): −4.1% and −1.7% and 4.8% | % Inhibition of proliferation (MCF-7 cells; Compound-44A 0.018817 nM, Day-6): 4.6% and 3.8% | % Inhibition of proliferation (MCF-7 cells; Compound-44A 0.056450 nM, Day-6): −11.5% and −2.9% and −2.8% | % Inhibition of proliferation (MCF-7 cells; Compound-44A 4.5725 nM, Day-6): 12.9% and 11.7% | % Inhibition of proliferation (MCF-7 cells; Compound-44A 13.7174 nM, Day-6): 44.3% and 47.5% | % Inhibition of proliferation (MCF-7 cells; Compound-44A 41.1523 nM, Day-6): 75.4% and 75.5% | % Inhibition of proliferation (MCF-7 cells; Compound-44A 123.4568 nM, Day-6): 84% | % Inhibition of proliferation (MCF-7 cells; Compound-44A 370.3704 nM, Day-6): 87.5% and 86.2% | % Inhibition of proliferation (MCF-7 cells; Compound-44A 1111.11 nM, Day-6): 106.1% | % Inhibition of proliferation (MCF-7 cells; Compound-44A 3333.333 nM, Day-6): 106.1% and 106.3% | % Inhibition of proliferation (MCF-7 cells; Compound-44A 10000 nM, Day-6): 106.4% and 106.3% | % Inhibition of proliferation (MCF-7 cells; Compound-44A 30000 nM, Day-6): 112.3% | inhibition at 0.0005 µM (MCF-7 cells; Homo sapiens, MCF7, 144 h, Fulvestrant 0 nM + Compound-44A 0.50 nM, 6 days): 4% | inhibition at 0.0015 µM (MCF-7 cells; Homo sapiens, MCF7, 144 h, Fulvestrant 0 nM + Compound-44A 1.50 nM, 6 days): 4% | inhibition at 0.041 µM (MCF-7 cells; Homo sapiens, MCF7, 144 h, Fulvestrant 0 nM + Compound-44A 41.00 nM, 6 days): 74% | inhibition at 0.123 µM (MCF-7 cells; Homo sapiens, MCF7, 144 h, Fulvestrant 0 nM + Compound-44A 123.00 nM, 6 days): 83% | inhibition at 0.3703 µM (MCF-7 cells; Homo sapiens, MCF7, 144 h, Fulvestrant 0 nM + Compound-44A 370.30 nM, 6 days): 87% | inhibition at 18.82 pM (MCF-7 cells; Homo sapiens, MCF7, Compound-44A 0.018817 nM, Day-6): 2.9% | inhibition at 0.0045725 µM (MCF-7 cells; Homo sapiens, MCF7, Compound-44A 4.5725 nM, Day-6): 13.6% | inhibition at 0.0137174 µM (MCF-7 cells; Homo sapiens, MCF7, Compound-44A 13.7174 nM, Day-6): 48.3% | inhibition at 0.0411523 µM (MCF-7 cells; Homo sapiens, MCF7, Compound-44A 41.1523 nM, Day-6): 71.6% | inhibition at 0.123457 µM (MCF-7 cells; Homo sapiens, MCF7, Compound-44A 123.4568 nM, Day-6): 81.6% | inhibition at 0.37037 µM (MCF-7 cells; Homo sapiens, MCF7, Compound-44A 370.3704 nM, Day-6): 88.5% | inhibition at 1.11111 µM (MCF-7 cells; Homo sapiens, MCF7, Compound-44A 1111.11 nM, Day-6): 105% | inhibition at 3.33333 µM (MCF-7 cells; Homo sapiens, MCF7, Compound-44A 3333.333 nM, Day-6): 106% | inhibition at 10 µM (MCF-7 cells; Homo sapiens, MCF7, Compound-44A 10000 nM, Day-6): 106% | inhibition at 30 µM (MCF-7 cells; Homo sapiens, MCF7, Compound-44A 30000 nM, Day-6): 112% | synergy in inhibiting the proliferation of breast cancer cell line MCF-7 (MCF-7 cells; in combination with fulvestrant): synergy | inhibition of proliferation in MCF-7 cells (MCF-7 cells; single agent, serial dilutions, 6 days): dose dependent inhibition of proliferation | % Inhibition of proliferation (Z-138 cells; Compound-44A 0.0015 μM, Day-3): −1.8% and 3.5% | % Inhibition of proliferation (Z-138 cells; Compound-44A 0.0046 μM, Day-3): 5.8% and 5.6% and −3.4% | % Inhibition of proliferation (Z-138 cells; Compound-44A 0.0412 μM, Day-3): 63.6% and 62.2% | % Inhibition of proliferation (Z-138 cells; Compound-44A 0.1235 μM, Day-3): 72.1% and 74.5% | % Inhibition of proliferation (Z-138 cells; Compound-44A 0.3704 μM, Day-3): 77.2% and 77.3% | % Inhibition of proliferation (Z-138 cells; Compound-44A 1.1111 μM, Day-3): 99.3% and 98.8% | % Inhibition of proliferation (Z-138 cells; Compound-44A 3.3333 μM, Day-3): 99.9% | % Inhibition of proliferation (Z-138 cells; Compound-44A 10.0000 μM, Day-3): 99.9% | inhibition at 0.0015 µM (Z-138 cells; Homo sapiens, Z-138, 72 h, Venetoclax 0.0 μM + Compound-44A 0.0015 μM, 3 days): 2% | inhibition at 0.0412 µM (Z-138 cells; Homo sapiens, Z-138, 72 h, Venetoclax 0.0 μM + Compound-44A 0.0412 μM, 3 days, read-out: % Inhibition in proliferation): 63% | inhibition at 0.1235 µM (Z-138 cells; Homo sapiens, Z-138, 72 h, Venetoclax 0.0 μM + Compound-44A 0.1235 μM, 3 days, read-out: % Inhibition in proliferation): 73% | inhibition at 0.3704 µM (Z-138 cells; Homo sapiens, Z-138, 72 h, Venetoclax 0.0 μM + Compound-44A 0.3704 μM, 3 days, read-out: % Inhibition in proliferation): 77% | inhibition at 1.1111 µM (Z-138 cells; Homo sapiens, Z-138, 72 h, Venetoclax 0.0 μM + Compound-44A 1.1111 μM, 3 days, read-out: % Inhibition in proliferation): 99% | inhibition at 0.0412 µM (Z-138 cells; Homo sapiens, Z-138, Compound-44A 0.0412 μM, Day-3, read-out: % Inhibition of proliferation): 62.1% | inhibition at 0.1235 µM (Z-138 cells; Homo sapiens, Z-138, Compound-44A 0.1235 μM, Day-3, read-out: % Inhibition of proliferation): 72.4% | inhibition at 0.3704 µM (Z-138 cells; Homo sapiens, Z-138, Compound-44A 0.3704 μM, Day-3, read-out: % Inhibition of proliferation): 76.6% | inhibition at 1.1111 µM (Z-138 cells; Homo sapiens, Z-138, Compound-44A 1.1111 μM, Day-3, read-out: % Inhibition of proliferation): 99.4% | inhibition at 3.3333 µM (Z-138 cells; Homo sapiens, Z-138, Compound-44A 3.3333 μM, Day-3): 100% | inhibition at 10 µM (Z-138 cells; Homo sapiens, Z-138, Compound-44A 10.0000 μM, Day-3): 100% | synergy in inhibiting the proliferation of leukemia cancer cell line Z-138 (Z-138 cells; in combination with venetoclax): synergy | inhibition of proliferation in Z-138 cells (Z-138 cells; single agent, serial dilutions, 3 days): dose dependent inhibition of proliferation
